Measurements from ChEMBL document CHEMBL4011644, “3-Hydroxy-N'-arylidenepropanehydrazonamides with Halo-Substituted Phenanthrene Scaffolds Cure P. berghei Infected Mice When Administered Perorally” (J Med Chem, 2017).
Calls of active or inactive are those of the source. No cut-off for these calls is given here.

System: Plasmodium berghei
Assay: Antiplasmodial activity against Plasmodium berghei infected in NMRI mouse assessed as reduction in parasitemia at 30 mg/kg, po administered at 4, 24, 48, 72 hrs post infection measured on day 4 by Peter's test relative to control
Assay type: functional
Design: scale not given: the % may be the effect or the level left
Details: not given

SMILES	Activity [%]
O[C@@H](c1cc(C(F)(F)F)nc2c(C(F)(F)F)cccc12)[C@H]1CCCCN1 [(S,R)-MEFLOQUINE]	99.9

System: Plasmodium berghei
Assay: Antiplasmodial activity against Plasmodium berghei infected in NMRI mouse assessed as mean survival time at 30 mg/kg, po administered at 4, 24, 48, 72 hrs post infection by Peter's test (reference value: 6 to 7 day)
Assay type: functional
Details: not given

SMILES	MST [days]
O[C@@H](c1cc(C(F)(F)F)nc2c(C(F)(F)F)cccc12)[C@H]1CCCCN1 [(S,R)-MEFLOQUINE]	29

System: Plasmodium berghei
Assay: Antiplasmodial activity against Plasmodium berghei infected in NMRI mouse assessed as reduction in parasitemia at 50 mg/kg, po administered at 4, 24, 48, 72 hrs post infection measured on day 4 post infection by Peter's test relative to control
Assay type: functional
Design: scale not given: the % may be the effect or the level left
Details: not given

SMILES	Activity [%]
N/C(CC(O)c1cc2ccccc2c2ccccc12)=N\N=C\c1ccc(O)c(CN2CCOCC2)c1 (centres undefined)	89.7
CN1CCN(Cc2cc(/C=N/N=C(\N)CC(O)c3cc4ccccc4c4ccccc34)ccc2O)CC1 (centres undefined)	98
N/C(CC(O)c1cc2ccccc2c2ccccc12)=N\N=C\c1ccc(O)c(CN2CCCCC2)c1 (centres undefined)	99
CCCCC(CCCC)=N/N=C(\N)CC(O)c1cc2ccccc2c2ccccc12 (centres undefined)	<40

System: Mus musculus
Assay: Toxicity in NMRI mouse infected with Plasmodium berghei assessed as reduction in physical activity at 50 mg/kg, ip administered at 4, 24, 48, 72 hrs post infection
Assay type: organism-based
Details: in vivo

SMILES	Activity
N/C(CC(O)c1cc2ccccc2c2ccccc12)=N\N=C\c1ccc(O)c(CN2CCOCC2)c1 (centres undefined)	Non-Toxic
CN1CCN(Cc2cc(/C=N/N=C(\N)CC(O)c3cc4ccccc4c4ccccc34)ccc2O)CC1 (centres undefined)	Non-Toxic
N/C(CC(O)c1cc2ccccc2c2ccccc12)=N\N=C\c1ccc(O)c(CN2CCCCC2)c1 (centres undefined)	Non-Toxic
CCCCC(CCCC)=N/N=C(\N)CC(O)c1cc2ccccc2c2ccccc12 (centres undefined)	Non-Toxic

System: Mus musculus
Assay: Toxicity in NMRI mouse infected with Plasmodium berghei assessed as diarrhea at 50 mg/kg, ip administered at 4, 24, 48, 72 hrs post infection
Assay type: organism-based
Details: in vivo

SMILES	Activity
N/C(CC(O)c1cc2ccccc2c2ccccc12)=N\N=C\c1ccc(O)c(CN2CCOCC2)c1 (centres undefined)	Non-Toxic
CN1CCN(Cc2cc(/C=N/N=C(\N)CC(O)c3cc4ccccc4c4ccccc34)ccc2O)CC1 (centres undefined)	Non-Toxic
N/C(CC(O)c1cc2ccccc2c2ccccc12)=N\N=C\c1ccc(O)c(CN2CCCCC2)c1 (centres undefined)	Non-Toxic
CCCCC(CCCC)=N/N=C(\N)CC(O)c1cc2ccccc2c2ccccc12 (centres undefined)	Non-Toxic

System: Plasmodium falciparum
Assay: Antiplasmodial activity against chloroquine-sensitive asexual blood stages of Plasmodium falciparum 3D7 after 72 hrs by HRP2-based ELISA
Assay type: functional
Details: 3D7, 72 h

SMILES	IC50 [nM]
N/C(CC(O)c1cc2ccccc2c2ccccc12)=N\N=C\c1ccc(O)c(CN2CCOCC2)c1 (centres undefined)	29
CN1CCN(Cc2cc(/C=N/N=C(\N)CC(O)c3cc4ccccc4c4ccccc34)ccc2O)CC1 (centres undefined)	5.2
N/C(CC(O)c1cc2ccccc2c2ccccc12)=N\N=C\c1ccc(O)c(CN2CCCCC2)c1 (centres undefined)	2.9
CCCCC(CCCC)=N/N=C(\N)CC(O)c1cc2ccccc2c2ccccc12 (centres undefined)	8.3

System: Plasmodium berghei
Assay: Antiplasmodial activity against Plasmodium berghei infected in NMRI mouse assessed as mean survival time at 50 mg/kg, ip administered at 4, 24, 48, 72 hrs post infection by Peter's test (reference value: 6 to 7 day)
Assay type: functional
Details: not given

SMILES	MST [days]
N/C(CC(O)c1cc2ccccc2c2ccccc12)=N\N=C\c1ccc(O)c(CN2CCOCC2)c1 (centres undefined)	14
CN1CCN(Cc2cc(/C=N/N=C(\N)CC(O)c3cc4ccccc4c4ccccc34)ccc2O)CC1 (centres undefined)	18
N/C(CC(O)c1cc2ccccc2c2ccccc12)=N\N=C\c1ccc(O)c(CN2CCCCC2)c1 (centres undefined)	16.7
CCCCC(CCCC)=N/N=C(\N)CC(O)c1cc2ccccc2c2ccccc12 (centres undefined)	7

System: Plasmodium berghei
Assay: Antiplasmodial activity against Plasmodium berghei infected in NMRI mouse assessed as reduction in parasitemia at 50 mg/kg, ip administered at 4, 24, 48, 72 hrs post infection measured on day 4 post infection by Peter's test relative to control
Assay type: functional
Design: scale not given: the % may be the effect or the level left
Details: not given

SMILES	Activity [%]
N/C(CC(O)c1cc2ccccc2c2ccccc12)=N\N=C\c1ccc(O)c(CN2CCOCC2)c1 (centres undefined)	91.3
CN1CCN(Cc2cc(/C=N/N=C(\N)CC(O)c3cc4ccccc4c4ccccc34)ccc2O)CC1 (centres undefined)	97.6
N/C(CC(O)c1cc2ccccc2c2ccccc12)=N\N=C\c1ccc(O)c(CN2CCCCC2)c1 (centres undefined)	98.7
CCCCC(CCCC)=N/N=C(\N)CC(O)c1cc2ccccc2c2ccccc12 (centres undefined)	64.8

System: Plasmodium berghei
Assay: Antiplasmodial activity against Plasmodium berghei infected in NMRI mouse assessed as parasite-free mouse at 50 mg/kg, po administered at 4, 24, 48, 72 hrs post infection measured on day 30 by Peter's test
Assay type: functional, organism-based
Details: not given

SMILES	Activity
N/C(CC(O)c1cc2ccccc2c2ccccc12)=N\N=C\c1ccc(O)c(CN2CCOCC2)c1 (centres undefined)	inactive
CN1CCN(Cc2cc(/C=N/N=C(\N)CC(O)c3cc4ccccc4c4ccccc34)ccc2O)CC1 (centres undefined)	inactive
N/C(CC(O)c1cc2ccccc2c2ccccc12)=N\N=C\c1ccc(O)c(CN2CCCCC2)c1 (centres undefined)	inactive
CCCCC(CCCC)=N/N=C(\N)CC(O)c1cc2ccccc2c2ccccc12 (centres undefined)	inactive

System: not listed separately
Assay: Selectivity index, ratio of IC50 for human HepG2 cells to IC50 for chloroquine-sensitive asexual blood stages of Plasmodium falciparum 3D7
Assay type: toxicity
Details: read-out: Ratio IC50

SMILES	selectivity ratio
N/C(CC(O)c1cc2ccccc2c2ccccc12)=N\N=C\c1ccc(O)c(CN2CCOCC2)c1 (centres undefined)	128
CN1CCN(Cc2cc(/C=N/N=C(\N)CC(O)c3cc4ccccc4c4ccccc34)ccc2O)CC1 (centres undefined)	1620
N/C(CC(O)c1cc2ccccc2c2ccccc12)=N\N=C\c1ccc(O)c(CN2CCCCC2)c1 (centres undefined)	2900
CCCCC(CCCC)=N/N=C(\N)CC(O)c1cc2ccccc2c2ccccc12 (centres undefined)	1040

System: Plasmodium berghei
Assay: Antiplasmodial activity against Plasmodium berghei infected in NMRI mouse assessed as parasite-free mouse at 50 mg/kg, ip administered at 4, 24, 48, 72 hrs post infection measured on day 30 by Peter's test
Assay type: functional, organism-based
Details: not given

SMILES	Activity
N/C(CC(O)c1cc2ccccc2c2ccccc12)=N\N=C\c1ccc(O)c(CN2CCOCC2)c1 (centres undefined)	inactive
CN1CCN(Cc2cc(/C=N/N=C(\N)CC(O)c3cc4ccccc4c4ccccc34)ccc2O)CC1 (centres undefined)	inactive
N/C(CC(O)c1cc2ccccc2c2ccccc12)=N\N=C\c1ccc(O)c(CN2CCCCC2)c1 (centres undefined)	inactive
CCCCC(CCCC)=N/N=C(\N)CC(O)c1cc2ccccc2c2ccccc12 (centres undefined)	inactive

System: HepG2
Assay: Cytotoxicity against human HepG2 cells by CellTiterGlo assay
Assay type: cell-based
Details: not given

SMILES	IC50 [nM]
N/C(CC(O)c1cc2ccccc2c2ccccc12)=N\N=C\c1ccc(O)c(CN2CCOCC2)c1 (centres undefined)	3700
CN1CCN(Cc2cc(/C=N/N=C(\N)CC(O)c3cc4ccccc4c4ccccc34)ccc2O)CC1 (centres undefined)	8400
N/C(CC(O)c1cc2ccccc2c2ccccc12)=N\N=C\c1ccc(O)c(CN2CCCCC2)c1 (centres undefined)	8400
CCCCC(CCCC)=N/N=C(\N)CC(O)c1cc2ccccc2c2ccccc12 (centres undefined)	8600

System: Plasmodium falciparum
Assay: Antiplasmodial activity against multidrug-resistant asexual blood stages of Plasmodium falciparum Dd2 after 72 hrs by HRP2-based ELISA
Assay type: functional
Details: Dd2, 72 h

SMILES	IC50 [nM]
N/C(CC(O)c1cc2ccccc2c2ccccc12)=N\N=C\c1ccc(O)c(CN2CCOCC2)c1 (centres undefined)	44
CN1CCN(Cc2cc(/C=N/N=C(\N)CC(O)c3cc4ccccc4c4ccccc34)ccc2O)CC1 (centres undefined)	9.2
N/C(CC(O)c1cc2ccccc2c2ccccc12)=N\N=C\c1ccc(O)c(CN2CCCCC2)c1 (centres undefined)	5.4
CCCCC(CCCC)=N/N=C(\N)CC(O)c1cc2ccccc2c2ccccc12 (centres undefined)	12

System: Plasmodium berghei
Assay: Antiplasmodial activity against Plasmodium berghei infected in NMRI mouse assessed as mean survival time at 50 mg/kg, po administered at 4, 24, 48, 72 hrs post infection by Peter's test (reference value: 6 to 7 day)
Assay type: functional
Details: not given

SMILES	MST [days]
N/C(CC(O)c1cc2ccccc2c2ccccc12)=N\N=C\c1ccc(O)c(CN2CCOCC2)c1 (centres undefined)	9.7
CN1CCN(Cc2cc(/C=N/N=C(\N)CC(O)c3cc4ccccc4c4ccccc34)ccc2O)CC1 (centres undefined)	16
N/C(CC(O)c1cc2ccccc2c2ccccc12)=N\N=C\c1ccc(O)c(CN2CCCCC2)c1 (centres undefined)	10.3
